# Results as given in patent publication US6900200B2, “Tricyclic hydroxy carboxamides and derivatives thereof tocolytic oxytocin receptor antagonists” (Wyeth, priority 2001, dated 2005).
# Target: T1, human oxytocin receptor (Homo sapiens, UniProt P30559)
# T1 construct: host or cells: CHO cells, pcDNA3.1 vector
# T1 sequence (P30559 1-389): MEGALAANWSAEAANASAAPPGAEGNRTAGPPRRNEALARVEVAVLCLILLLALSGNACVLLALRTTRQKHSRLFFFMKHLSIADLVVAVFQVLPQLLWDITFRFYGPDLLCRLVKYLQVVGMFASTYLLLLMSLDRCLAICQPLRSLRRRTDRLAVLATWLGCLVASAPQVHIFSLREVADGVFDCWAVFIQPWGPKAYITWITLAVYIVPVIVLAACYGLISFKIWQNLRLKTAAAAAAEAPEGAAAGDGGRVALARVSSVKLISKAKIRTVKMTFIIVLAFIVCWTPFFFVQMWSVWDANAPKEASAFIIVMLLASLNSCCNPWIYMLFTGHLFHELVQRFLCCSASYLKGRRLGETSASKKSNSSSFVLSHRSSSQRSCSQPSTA
# Experiment: Oxytocin binding in CHO cell membranes expressing human oxytocin receptors ([3H]oxytocin radioligand binding)
# Conditions: for inhibition at 0.1 µM: @ 100 nM, read-out: OT % inhibition @ 100 nM; for IC50: value printed in parentheses, read-out: OT (IC50)
# Source text: Oxytocin Binding in Chinese Hamster Ovary Cell Membranes Expressing Human Oxytocin Receptors
# Chinese Hamster Ovary (CHO) cells stably transfected with the human oxytocin receptor (cf. Tanizawa et al., U.S. Pat. No. 5,466,584 (1995) to Rohto Pharmaceutical Co. Ltd., Osaka, Japan) were obtained from M. Thibonnier, Case Western Reserve University School of Medicine, Cleveland, Ohio.
# A. Passaging and Amplification of Cells
# CHO cells transfected with the human oxytocin receptors obtained from M. Thibonnier (pcDNA3.1 vector) are allowed to grow to confluency (approx. >90%) in T-150 flasks under sterile conditions, in a cell culture medium of F-12 Nutrient Mixture (HAM) with L-glutamine (Gibco Cat. #11765-054) containing 15 mM HEPES (Gibco Cat. #15630-080), 1% antibiotic/antimycotic (add 5 mL 100×, Gibco Cat. #15240-062 per 500 mL F-12), 400 μg/mL of Geneticin (add 4 mL of 50 mg/mL per 500 mL F-12) and 10% Fetal Bovine Serum (Qualified, heat inactivated, Gibco Cat. #16140-063). The medium is removed by aspiration and the cells are washed with 10 mL of Hank's Balanced Salt solution (Gibco Cat. #14175-095). The salt solution is removed by aspiration and the cells trypsinized with 5 mL of trypsin-EDTA (0.05% trypsin, 0.53 mM EDTA-4Na, Gibco Cat. #25300-070) for 1 min. The trypsin is removed by aspiration and the cells dislodged by tapping. Cell Culture medium (e.g. 30 mL for 1:30 split) is immediately added and mixed well to inactivate trypsin. 1 mL of detached cells is added to new culture flasks containing fresh Cell Culture medium (e.g. into 25 mL per T-150 flask), and mixed gently. The cells are incubated at 37° C. in 5% CO2. The medium is changed at 3 to 4 days interval (or as appropriate). The cells grow to confluency (approx. >75%-95%) within 7-8 days. All steps are done under sterile conditions.
# The cells are washed twice gently with Hank's Balanced Salt solution (e.g., use 10 mL per T-1 50 flask). The excess solution is removed and the cells bathed for 15-30 min. in an enzyme-free Cell Dissociation Buffer (e.g., use 8 mL Hank's Based, Gibco Cat. #13150-016 per T-150 flask) until cells are loosened. The contents are transferred to centrifuge tubes (50 mL size) kept in ice bath. All subsequent steps are done at 4° C. The tubes are centrifuged at 300×g for 15 min (1380 rpm on SORVAL, Model RT6000D, using rotor for 50 mL tubes). The supernatant is discarded and the cells suspended in homogenizing buffer (10 mM Tris-HCl containing 0.25 M sucrose and 1 mM EDTA, pH 7.4) ensuring that the volume of the buffer is about ten times the volume of the cell pellet. The cells are pooled into a centrifuge tube (50 mL) and homogenized with a Polytron at setting 6 for 10 sec. The homogenate is transferred into a Potter-Elvjehm homogenizer and homogenized with 3 strokes. The homogenate is centrifuged at 1500×g for 10 min at 4° C. (3100 rpm using SORVAL, model RT6000D, using rotor for 50 mL tubes). The pellet is discarded. The supernatant is centrifuged at 100,000×g for 60 min. at 4° C. (Beckman L8-80M ultracentrifuge; spin at 37,500 rpm with rotor type 70 Ti for 50 mL tubes; 38,000 rpm with type 80Ti for 15 mL tubes; or 35,800 rpm with rotor type 45Ti). The supernantant is discarded and the pellet suspended in 3 to 4 mL of Tris buffer (50 mM TRIS—HCl, pH 7.4). The protein content is estimated by the Bradford or Lowry method. The volume of the membrane suspension is adjusted with the membrane buffer (50 mM Tris-HCl containing 0.1% BSA and 0.1 mM PMSF) to give 3.0 mg/mL (or as appropriate) of protein. The membranes are aliquoted and stored at −70° C.
# C. Radioligand Binding Assay
# In wells of a 96-well format microtiter plate, is added 90, 110 or 130 μL (to make up a final volume of 200 μL) of assay buffer containing 50 mM of Tris-HCl (pH 7.4), […], 1 mg % aprotinin, 1 mg % leupeptin, 2 mg % 1,10-phenanthroline, 10 mg % trypsin inhibitor, and 0.1 mM PMSF. […]
SMILES,inhibition at 0.1 µM [%],IC50 [nM]
"COc1ccccc1-c1ccc(C(=O)N2Cc3ccc(C(=O)N(C)C[C@H](O)CO)n3Cc3ccccc32)cc1C (single isomer, unassigned) [Example 15]",101,–
"COc1cc(C(=O)N2Cc3ccc(C(=O)N(C)C[C@@H](O)[C@H](O)[C@H](O)[C@@H](O)CO)n3Cc3ccccc32)ccc1-c1ccccc1C(F)(F)F (stereo in doubt) [Example 23, 10-{[2-Methoxy-2′-trifluoromethyl-[1,1′-biphenyl]-4-yl]carbonyl}-N-methyl-N-[(2R,3S,4R,5S)-2,3,4,5,6-pentahydroxyhexyl]-10,11-dihydro-5H-pyrrolo[2,1-c][1,4]benzodiazepine-3-carboxamide]",–,4.09
"Cc1cc(C(=O)N2Cc3ccc(C(=O)N(CCO)CCO)n3Cc3ccccc32)ccc1-c1ccccc1C(F)(F)F [Example 1, 10-[(2-Methyl-2′-trifluoromethyl-[1,1′-biphenyl]-4-yl)carbonyl]-10,11-dihydro-5H-pyrrolo[2,1-c][1,4]benzodiazepine-3-carboxylic acid bis-(2-hydroxy-ethyl)-amide]",–,1.37
"Cc1cc(C(=O)N2Cc3ccc(C(=O)N(C)C[C@H](O)[C@@H](O)[C@H](O)[C@H](O)CO)n3Cc3ccccc32)ccc1-c1ccccc1C(F)(F)F [Example 4, 10-[(2-Methyl-2′-trifluoromethyl-[1,1′-biphenyl]-4-yl)carbonyl]-10,11-dihydro-5H-pyrrolo[2,1-c][1,4]benzodiazepine-3-carboxylic acid methyl-((2S,3R,4R,5R)-2,3,4,5,6-pentahydroxy-hexyl)-amide]",–,3.43
"Cc1cc(C(=O)N2Cc3ccc(C(=O)N4CCN(C[C@H](O)CO)CC4)n3Cc3ccccc32)ccc1-c1ccccc1C(F)(F)F [Example 5, (2S)-3-{4-[(10-{[2-Methyl-2′-trifluoromethyl-[1,1′-biphenyl]-4-yl]carbonyl}-10,11-dihydro-5H-pyrrolo[2,1-c][1,4]benzodiazepin-3-yl)carbonyl]piperazin-1-yl}propane-1,2-diol]",–,35.8
"Cc1cc(C(=O)N2Cc3ccc(C(=O)N4CCN(C[C@@H](O)CO)CC4)n3Cc3ccccc32)ccc1-c1ccccc1C(F)(F)F [Example 6, (2R)-3-{4-[(10-{[2-Methyl-2′-trifluoromethyl-[1,1′-biphenyl]-4-yl]carbonyl}-10,11-dihydro-5H-pyrrolo[2,1-c][1,4]benzodiazepin-3-yl)carbonyl]piperazin-1-yl}propane-1,2-diol]",–,25.1
"Cc1cc(C(=O)N2Cc3ccc(C(=O)N(C)C[C@@H]4OC(=O)O[C@H]4[C@H](O)[C@H]4COC(=O)O4)n3Cc3ccccc32)ccc1-c1ccccc1C(F)(F)F [Example 12, N-[((4S,5S)-5-{(R)-Hydroxy[(4R)-2-oxo-1,3-dioxolan-4-yl]methyl}-2-oxo-1,3-dioxolan-4-yl)methyl]-N-methyl-10-{[2-methyl-2′-(trifluoromethyl)[1,1′-biphenyl]-4-yl]carbonyl}-10,11-dihydro-5H-pyrrolo[2,1-c]benzodiazepine-3-carboxamide]",–,4.27

# Second part, the molecule after the results:
inhibition at 0.1 µM [%],IC50 [nM],SMILES
101,–,"COc1ccccc1-c1ccc(C(=O)N2Cc3ccc(C(=O)N(C)C[C@@H](O)CO)n3Cc3ccccc32)cc1C (single isomer, unassigned) [Example 16]"
–,3.09,"Cc1cc(C(=O)N2Cc3ccc(C(=O)N(C)CC(O)CO)n3Cc3ccccc32)ccc1-c1ccccc1C(F)(F)F (stereo not drawn) [Example 2, 10-[(2-Methyl-2′-trifluoromethyl-[1,1′-biphenyl]-4-yl)carbonyl]-10,11-dihydro-5H-pyrrolo[2,1-c][1,4]benzodiazepine-3-carboxylic acid (2,3-dihydroxy-propyl)-methyl-amide]"
–,6.53,"Cc1cc(C(=O)N2Cc3ccc(C(=O)NC(CO)(CO)CO)n3Cc3ccccc32)ccc1-c1ccccc1C(F)(F)F [Example 3, 10-[(2-Methyl-2′-trifluoromethyl-[1,1′-biphenyl]-4-yl)carbonyl]-10,11-dihydro-5H-pyrrolo[2,1-c][1,4]benzodiazepine-3-carboxylic acid (2-hydroxy-1,1-bis-hydroxymethyl-ethyl)-amide]"
–,30.7,"COCCN1CCN(C(=O)c2ccc3n2Cc2ccccc2N(C(=O)c2ccc(-c4ccccc4C(F)(F)F)c(C)c2)C3)CC1 [Example 7, Methyl 2-{4-[(10-{[2-methyl-2′-trifluoromethyl-[1,1′-biphenyl]-4-yl]carbonyl}-10,11-dihydro-5H-pyrrolo[2,1-c][1,4]benzodiazepin-3-yl)carbonyl]piperazin-1-yl}ethyl ether]"
–,7.55,"COC[C@H](O)CN1CCN(C(=O)c2ccc3n2Cc2ccccc2N(C(=O)c2ccc(-c4ccccc4C(F)(F)F)c(C)c2)C3)CC1 [Example 8, (2R)-1-Methoxy-3-{4-[(10-{[2-methyl-2′-trifluoromethyl-[1,1′-biphenyl]-4-yl]carbonyl}-10,11-dihydro-5H-pyrrolo[2,1-c][1,4]benzodiazepin-3-yl)carbonyl]piperazin-1-yl}propan-2-ol]"
–,26.7,"COC[C@@H](O)CN1CCN(C(=O)c2ccc3n2Cc2ccccc2N(C(=O)c2ccc(-c4ccccc4C(F)(F)F)c(C)c2)C3)CC1 [Example 9, [3-({4-[(2S)-2-Hydroxy-3-methoxypropyl]-1-piperazinyl}carbonyl)-5H-pyrrolo[2,1-c][1,4]benzodiazepin-10(11H)-yl][2-methyl-2′-trifluoromethyl-[1,1′-biphenyl]-4-yl]methanone]"
–,5.31,"COCC(CN(C)C(=O)c1ccc2n1Cc1ccccc1N(C(=O)c1ccc(-c3ccccc3C(F)(F)F)c(C)c1)C2)OC (stereo not drawn) [Example 10, N-(2,3-Dimethoxypropyl)-N-methyl-10-{[2-methyl-2′-trifluoromethyl-[1,1′-biphenyl]-4-yl]carbonyl}-10,11-dihydro-5H-pyrrolo[2,1-c][1,4]benzodiazepine-3-carboxamide]"
–,3.66,"Cc1cc(C(=O)N2Cc3ccc(C(=O)N(C)CC4COC(=O)O4)n3Cc3ccccc32)ccc1-c1ccccc1C(F)(F)F (stereo not drawn) [Example 11, 10-[(2-Methyl-2′-trifluoromethyl-[1,1′-biphenyl]-4-yl)carbonyl]-10,11-dihydro-5H-pyrrolo[2,1-c][1,4]benzodiazepine-3-carboxylic acid methyl-[(2-oxo-[1,3]dioxolan-4-yl)methyl]-amide]"
